Columns and labels:
[1] = refractive index (Na D-line) (dimensionless); xn = mol fraction of the nth substance listed; conditions: 100 kPa, Liquid, Standard Abbe refractometry
[2] = xn = mol fraction of the nth substance listed; conditions: 100 kPa, Liquid; for viscosity: Capillary tube (Ostwald / Ubbelohde) method; for mass density: Vibrating tube method

C1CC[C@H]2CCCC[C@H]2C1 [cis-decahydronaphthalene] + CCCCCCCCC
Conditions	mass density, [2] [kg/m3]	refractive index, [1]	viscosity, [2] [mPa·s]
293.15 K, x1 = 0.1031	734.59	–	0.788
293.15 K, x1 = 0.2033	751.1	–	0.899
293.15 K, x1 = 0.2973	766.96	–	1.02
293.15 K, x1 = 0.3997	784.54	–	1.139
293.15 K, x1 = 0.4978	801.87	–	1.268
293.15 K, x1 = 0.6044	821.02	–	1.507
293.15 K, x1 = 0.6961	837.96	–	1.769
293.15 K, x1 = 0.8014	857.86	–	2.111
293.15 K, x1 = 0.8976	876.48	–	2.526
293.15 K, x1 = 1	896.85	–	3.355
298.15 K, x1 = 0.1031	730.75	1.4095	0.737
298.15 K, x1 = 0.2033	747.26	1.4168	0.826
298.15 K, x1 = 0.2973	763.14	1.4232	0.956
298.15 K, x1 = 0.3997	780.74	1.4311	1.064
298.15 K, x1 = 0.4978	798.1	1.438	1.171
298.15 K, x1 = 0.6044	817.23	1.4459	1.385
298.15 K, x1 = 0.6961	834.18	1.4533	1.624
298.15 K, x1 = 0.8014	854.08	1.4613	1.919
298.15 K, x1 = 0.8976	872.72	1.4688	2.288
298.15 K, x1 = 1	893.06	1.4776	3.011
303.15 K, x1 = 0.1031	726.86	–	0.695
303.15 K, x1 = 0.2033	743.4	–	0.786
303.15 K, x1 = 0.2973	759.3	–	0.883
303.15 K, x1 = 0.3997	776.91	–	0.986
303.15 K, x1 = 0.4978	794.29	–	1.086
303.15 K, x1 = 0.6044	813.43	–	1.276
303.15 K, x1 = 0.6961	830.38	–	1.49
303.15 K, x1 = 0.8014	850.29	–	1.748
303.15 K, x1 = 0.8976	868.92	–	2.081
303.15 K, x1 = 1	889.26	–	2.718
308.15 K, x1 = 0.1031	722.96	1.4047	0.655
308.15 K, x1 = 0.2033	739.52	1.4121	0.739
308.15 K, x1 = 0.2973	755.44	1.4189	0.826
308.15 K, x1 = 0.3997	773.07	1.4269	0.917
308.15 K, x1 = 0.4978	790.46	1.4336	1.01
308.15 K, x1 = 0.6044	809.61	1.4425	1.182
308.15 K, x1 = 0.6961	826.58	1.4492	1.372
308.15 K, x1 = 0.8014	846.49	1.4572	1.606
308.15 K, x1 = 0.8976	865.13	1.4654	1.891
308.15 K, x1 = 1	885.46	1.4736	2.47
313.15 K, x1 = 0.1031	719.05	–	0.617
313.15 K, x1 = 0.2033	735.63	–	0.698
313.15 K, x1 = 0.2973	751.56	–	0.77
313.15 K, x1 = 0.3997	769.21	–	0.852
313.15 K, x1 = 0.4978	786.62	–	0.943
313.15 K, x1 = 0.6044	805.79	–	1.099
313.15 K, x1 = 0.6961	822.76	–	1.26
313.15 K, x1 = 0.8014	842.68	–	1.476
313.15 K, x1 = 0.8976	861.33	–	1.732
313.15 K, x1 = 1	881.65	–	2.252
318.15 K, x1 = 0.1031	715.12	1.4002	0.588
318.15 K, x1 = 0.2033	731.73	1.4077	0.662
318.15 K, x1 = 0.2973	747.68	1.4145	0.728
318.15 K, x1 = 0.3997	765.35	1.4223	0.802
318.15 K, x1 = 0.4978	782.77	1.4294	0.89
318.15 K, x1 = 0.6044	801.95	1.4379	1.033
318.15 K, x1 = 0.6961	818.94	1.4452	1.174
318.15 K, x1 = 0.8014	838.88	1.4533	1.374
318.15 K, x1 = 0.8976	857.52	1.4616	1.604
318.15 K, x1 = 1	877.85	1.4696	2.079
323.15 K, x1 = 0.1031	711.17	–	0.559
323.15 K, x1 = 0.2033	727.8	–	0.626
323.15 K, x1 = 0.2973	743.78	–	0.681
323.15 K, x1 = 0.3997	761.47	–	0.753
323.15 K, x1 = 0.4978	778.9	–	0.835
323.15 K, x1 = 0.6044	798.11	–	0.965
323.15 K, x1 = 0.6961	815.11	–	1.094
323.15 K, x1 = 0.8014	835.06	–	1.262
323.15 K, x1 = 0.8976	853.71	–	1.477
323.15 K, x1 = 1	874.05	–	1.912

C1CC[C@H]2CCCC[C@H]2C1 [cis-decahydronaphthalene] + CCCCCCCCCC
Conditions	mass density, [2] [kg/m3]	refractive index, [1]	viscosity, [2] [mPa·s]
293.15 K, x1 = 0.1006	744.89	–	1.006
293.15 K, x1 = 0.2055	759.79	–	1.09
293.15 K, x1 = 0.3009	773.95	–	1.197
293.15 K, x1 = 0.3965	788.64	–	1.366
293.15 K, x1 = 0.508	806.55	–	1.481
293.15 K, x1 = 0.6026	822.35	–	1.669
293.15 K, x1 = 0.7012	839.6	–	1.954
293.15 K, x1 = 0.7763	853.24	–	2.163
293.15 K, x1 = 0.8985	876.48	–	2.647
293.15 K, x1 = 1	896.85	–	3.355
298.15 K, x1 = 0.1006	741.18	1.415	0.933
298.15 K, x1 = 0.2055	756.08	1.421	1.015
298.15 K, x1 = 0.3009	770.21	1.427	1.107
298.15 K, x1 = 0.3965	784.9	1.4326	1.26
298.15 K, x1 = 0.508	802.83	1.4403	1.361
298.15 K, x1 = 0.6026	818.62	1.4464	1.53
298.15 K, x1 = 0.7012	835.86	1.4539	1.781
298.15 K, x1 = 0.7763	849.49	1.4594	1.964
298.15 K, x1 = 0.8985	872.71	1.4688	2.39
298.15 K, x1 = 1	893.06	1.4776	3.011
303.15 K, x1 = 0.1006	737.4	–	0.868
303.15 K, x1 = 0.2055	752.31	–	0.939
303.15 K, x1 = 0.3009	766.45	–	1.022
303.15 K, x1 = 0.3965	781.15	–	1.162
303.15 K, x1 = 0.508	799.07	–	1.255
303.15 K, x1 = 0.6026	814.86	–	1.406
303.15 K, x1 = 0.7012	832.1	–	1.633
303.15 K, x1 = 0.7763	845.72	–	1.792
303.15 K, x1 = 0.8985	868.93	–	2.168
303.15 K, x1 = 1	889.26	–	2.718
308.15 K, x1 = 0.1006	733.61	1.4109	0.812
308.15 K, x1 = 0.2055	748.53	1.4167	0.876
308.15 K, x1 = 0.3009	762.68	1.4227	0.95
308.15 K, x1 = 0.3965	777.38	1.4284	1.076
308.15 K, x1 = 0.508	795.31	1.4358	1.162
308.15 K, x1 = 0.6026	811.1	1.4422	1.298
308.15 K, x1 = 0.7012	828.33	1.4496	1.503
308.15 K, x1 = 0.7763	841.96	1.455	1.644
308.15 K, x1 = 0.8985	865.15	1.4647	1.979
308.15 K, x1 = 1	885.46	1.4736	2.47
313.15 K, x1 = 0.1006	729.8	–	0.76
313.15 K, x1 = 0.2055	744.74	–	0.82
313.15 K, x1 = 0.3009	758.9	–	0.887
313.15 K, x1 = 0.3965	773.6	–	0.996
313.15 K, x1 = 0.508	791.54	–	1.079
313.15 K, x1 = 0.6026	807.33	–	1.204
313.15 K, x1 = 0.7012	824.56	–	1.389
313.15 K, x1 = 0.7763	838.18	–	1.517
313.15 K, x1 = 0.8985	861.37	–	1.811
313.15 K, x1 = 1	881.65	–	2.252
318.15 K, x1 = 0.1006	725.99	1.4065	0.715
318.15 K, x1 = 0.2055	740.94	1.4127	0.771
318.15 K, x1 = 0.3009	755.1	1.4188	0.832
318.15 K, x1 = 0.3965	769.81	1.4251	0.924
318.15 K, x1 = 0.508	787.76	1.4319	1.007
318.15 K, x1 = 0.6026	803.55	1.4384	1.12
318.15 K, x1 = 0.7012	820.78	1.4456	1.286
318.15 K, x1 = 0.7763	834.4	1.4515	1.401
318.15 K, x1 = 0.8985	857.58	1.4611	1.666
318.15 K, x1 = 1	877.85	1.4696	2.063
323.15 K, x1 = 0.1006	722.16	–	0.674
323.15 K, x1 = 0.2055	737.12	–	0.725
323.15 K, x1 = 0.3009	751.29	–	0.781
323.15 K, x1 = 0.3965	766.01	–	0.859
323.15 K, x1 = 0.508	783.96	–	0.941
323.15 K, x1 = 0.6026	799.76	–	1.045
323.15 K, x1 = 0.7012	816.99	–	1.193
323.15 K, x1 = 0.7763	830.61	–	1.299
323.15 K, x1 = 0.8985	853.78	–	1.539
323.15 K, x1 = 1	874.05	–	1.898

Reference: the NIST ThermoML archive (doi:10.1021/je400250u)
